Test results as given in article PMC9413491, “A Novel and Cross-Species Active Mammalian INDY (NaCT) Inhibitor Ameliorates Hepatic Steatosis in Mice with Diet-Induced Obesity” (Metabolites, 2022).

What was measured:
[1] = tested on: fatty acid synthesis in HepG2 cells; assay: Fatty acid synthesis assay ([14C] citrate incorporation) in HepG2 cells; format: cell-based, human
Experimental: We performed the fatty acid synthesis assay in HepG2 cells. We seeded cells into black clear-bottom 96-well plates (Corning 3340 cell plate) 75,000/well and incubated at 37 °C. After 16–24 h, we washed the plates once with 100 µL PBS (+CaCl2 +MgCl2) and added 50 µL assay medium ([…] containing 11 mM glucose, 10 mM HEPES, and 1 nM insulin) per well. Then, we applied test substances in assay medium (10 µL, 5% DMSO) and incubated for 20 min at 37 °C. Thereafter, we added 10 µL assay medium containing [14C] citrate (final concentration 50 µM) and PrestoBlue reagent (1× final concentration; Thermo Fisher Scientific, Waltham, MA, USA) and incubated for 180 min (37 °C, 5% CO2). We measured cell viability (ViewLux instrument, Perkin Elmer). We removed medium by vacuum aspiration and washed cells once with 100 µL PBS (+CaCl2 +MgCl2). We lysed cells with 50 µL lysis buffer (0.1 N NaOH, 0.1 % Triton X-100) and sealed plates with Tape Pads and vortexed. For the saponification reaction, we incubated plates for 16–24 h at 70 °C in a humidified environment. Then, we removed seals and added 200 µL 0.1 N HCl to neutralise the pH. We transferred 150 µL from each into corresponding wells of a 96-well Flash plate (Perkin Elmer) and sealed with TopSeal A (Perkin Elmer). We incubated plates for 4 h at 70 °C and for at least 3 h at room temperature in the dark. We measured [14C] radioactivity (microbeta2, Perkin Elmer). For control samples, we applied 50 mM unlabelled citrate or C75 (Sigma-Aldrich, St. Louis, MO, USA, C5490).

human NaDC3 (SLC13A3) = biological target: T1, human NaDC3 (SLC13A3) (Homo sapiens, UniProt Q8WWT9); assay: [14C] succinate uptake in HEK293 cells overexpressing human NaDC3; format: cell-based
T1 construct: expressed in transfected cells; host or cells: HEK293 (HEK-NaDC3), hygromycin selection
T1 sequence (Q8WWT9 1-602): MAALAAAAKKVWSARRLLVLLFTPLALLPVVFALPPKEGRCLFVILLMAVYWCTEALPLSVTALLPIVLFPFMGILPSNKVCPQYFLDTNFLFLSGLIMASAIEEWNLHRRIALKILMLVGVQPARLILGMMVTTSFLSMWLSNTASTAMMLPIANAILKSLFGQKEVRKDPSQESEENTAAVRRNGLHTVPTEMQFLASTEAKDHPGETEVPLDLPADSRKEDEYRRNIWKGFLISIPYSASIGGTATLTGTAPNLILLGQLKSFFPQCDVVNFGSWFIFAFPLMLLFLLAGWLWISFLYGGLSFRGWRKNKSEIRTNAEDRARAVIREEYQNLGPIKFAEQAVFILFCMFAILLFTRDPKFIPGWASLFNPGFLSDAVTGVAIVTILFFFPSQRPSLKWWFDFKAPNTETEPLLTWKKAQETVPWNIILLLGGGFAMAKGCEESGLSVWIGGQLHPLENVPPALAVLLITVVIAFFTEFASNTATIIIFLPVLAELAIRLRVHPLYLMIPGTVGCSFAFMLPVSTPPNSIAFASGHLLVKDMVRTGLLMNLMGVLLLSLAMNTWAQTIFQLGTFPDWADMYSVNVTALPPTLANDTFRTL
Description: We obtained the compound by screening a library containing more than 50,000 highly diverse lead-like compounds from the Evotec Discovery Library (Evotec SE) and progressing initial hit-through-hit expansion and hit-to-lead optimisation phases. Compound library details are described under https://www.evotec.com/en/execute/drug-discovery-services/hit-identification (accessed on 5 August 2022). We used [14C] citrate uptake assays with HEK293 cells overexpressing recombinant human NaCT (HEK-NaCT). For confirmation, we measured citrate uptake using HepG2 cells which endogenously express NaCT. Furthermore, we measured activity on mouse Nact in a similar assay system using HEK293 cells recombinantly expressing murine Nact (HEK-Nact). We then tested the selectivity of selected compounds with another transporter of the same family—NaDC3. Selectivity was determined by a succinate uptake assay for NaDC3 using HepG2 cells or using HEK293 cells overexpressing recombinant human NaDC3.
For radiometric [14C] succinate uptake assays, we applied HEK cells overexpressing human NaDC3 and measured according to the procedure described previously, with a modified incubation buffer of HBSS buffer, supplemented with 20 mM HEPES, pH 7.4 and positive control 2,2-Dimethylsuccinic acid (Sigma-Aldrich, St. Louis, MO, USA).

O=C(Nc1cc(Cl)cc(C(F)(F)F)c1)OCCC(F)(F)F [ETG-5773]
IC50 difference in fatty acid synthesis versus PF-06649298 ([1]; ETG-5773 compared to PF-06649298, HepG2): around 40 fold | IC50 ([1]; Homo sapiens, HepG2, [14C] citrate incorporation, read-out: IC50 fatty acid synthesis, HepG2): 1 µM | IC50 (human NaDC3 (SLC13A3); HEK293 overexpressing human NaDC3, succinate substrate): > 20 µM | Selectivity for NaCT against NaDC3 (human NaDC3 (SLC13A3); NaCT citrate uptake vs NaDC3 succinate uptake): more than 100 fold
